Measured values from patent US20070243262A1, “Stable S-nitrosothiol formulations” (priority 2005, published 2007).

Key:
[1] = cited from earlier work
[2] = GSNO API (powder) stability by HPLC; assay type: physicochemical; conditions: for GSNO % w/w at 5° C. / GSNO % w/w at −20° C. / GSNO % w/w at −80° C.: GSNO powder, HPLC
Protocol: GSNO powder was tested for stability at various temperatures over a three-month period of time, and each formulation was tested for stability at various temperatures over a six month period of time. Stability was determined by HPLC analysis at various times throughout the test period.

For N[C@@H](CCC(=O)N[C@@H](CSN=O)C(=O)NCC(=O)O)C(=O)O [GSNO, S-nitrosoglutathione], the “stability in aqueous solutions” value [1] is listed as “decomposing in hours”, the “GSNO % w/w at 5° C.” value ([2]; 0 elapsed days) is listed as 92.7 % w/w and the “GSNO % w/w at 5° C.” value ([2]; 14 elapsed days) is listed as 84.6 % w/w. For the same compound, the “GSNO % w/w at 5° C.” value ([2]; 30 elapsed days) was 89.2 % w/w, the “GSNO % w/w at 5° C.” value ([2]; 90 elapsed days) was 80.0 % w/w and the “GSNO % w/w at −20° C.” value ([2]; 0 elapsed days) was 92.7 % w/w. For the same compound, the “GSNO % w/w at −20° C.” value ([2]; 14 elapsed days) was 90.6 % w/w, the “GSNO % w/w at −20° C.” value ([2]; 30 elapsed days) was 91.1 % w/w and the “GSNO % w/w at −20° C.” value ([2]; 90 elapsed days) was 89.7 % w/w. The “GSNO % w/w at −80° C.” value ([2]; 0 elapsed days) was 92.7 % w/w, the “GSNO % w/w at −80° C.” value ([2]; 30 elapsed days) was 91.4 % w/w and the “GSNO % w/w at −80° C.” value ([2]; 90 elapsed days) was 91.9 % w/w. For the same compound, the “stability of GSNO powder (in words)” value ([2]; temperatures above 0° C.) was “rapidly degrades”.
